Patent US9409884B2 (Rigel Pharmaceuticals, Inc., priority 2012, dated 2016)

Target: AMPK
Assay: AMPK activation, enzyme-linked immunosorbent assay
Assay type: biochemical
Conditions: Table 13, compounds of Table 6
Summary of the method: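 AMPK activation by test compounds was measured by enzyme-linked immunosorbent assay.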

Structure (SMILES) | EC50
O=C(Nc1ccc2oc(C(=O)N3CCC(Oc4ccc(C(F)(F)F)cc4)CC3)cc2c1)c1ccc(Oc2ccc(F)cc2)cc1 [Compound 6-24, 4-(4-fluorophenoxy)-N-(2-(4-(4-(trifluoromethyl)phenoxy)piperidine-1-carbonyl)benzofuran-5-yl)benzamide] | < 100 nM
COc1ccc(CN2CCC(NC(=O)c3cc4cc(C(=O)N5CCC(Oc6ccc(C(F)(F)F)cc6)CC5)ccc4o3)CC2)cc1 [Compound 6-25, N-(1-(4-methoxybenzyl)piperidin-4-yl)-5-(4-(4-(trifluoromethyl)phenoxy)piperidine-1-carbonyl) benzofuran-2-carboxamide] | < 100 nM
O=C(Nc1ccc(Oc2ccc(F)cc2)nc1)c1cc2cc(C(=O)N3CCC(Oc4ccc(C(F)(F)F)cc4)CC3)ccc2o1 [Compound 6-26, N-(6-(4-fluorophenoxy)pyridin-3-yl)-5-(4-(4-(trifluoromethyl)phenoxy)piperidine-1-carbonyl) benzofuran-2-carboxamide] | < 100 nM
N#Cc1ccc(CN2CCC(NC(=O)c3cc4cc(CN5CCC(Oc6ccc(C(F)(F)F)cc6)CC5)ccc4o3)CC2)cc1 [Compound 6-27, N-(1-(4-cyanobenzyl)piperidin-4-yl)-5-((4-(4-(trifluoromethyl)phenoxy)piperidin-1-yl)methyl) benzofuran-2-carboxamide] | < 100 nM
O=C(NC1CCN(Cc2cc(F)cc(F)c2)CC1)c1cc2cc(CN3CCC(Oc4ccc(C(F)(F)F)cc4)CC3)ccc2o1 [Compound 6-28, N-(1-(3,5-difluorobenzyl)piperidin-4-yl)-5-((4-(4-(trifluoromethyl)phenoxy)piperidin-1-yl)methyl) benzofuran-2-carboxamide] | < 100 nM
O=C(Nc1ccc(Oc2ccc(F)cc2)nc1)c1cc2cc(CN3CCC(Oc4ccc(C(F)(F)F)cc4)CC3)ccc2o1 [Compound 6-29, N-(6-(4-fluorophenoxy)pyridin-3-yl)-5-((4-(4-(trifluoromethyl)phenoxy)piperidin-1-yl)methyl) benzofuran-2-carboxamide] | < 100 nM
COc1ccc(CN2CCC(C(=O)Nc3ccc4oc(C(=O)NC5CCN(Cc6ccc(C#N)cc6)CC5)cc4c3)CC2)cc1 [Compound 6-40, N-(2-(1-(4-cyanobenzyl)piperidin-4-ylcarbamoyl)benzofuran-5-yl)-1-(4-methoxybenzyl)piperidine-4-carboxamide] | 1000 to 10000 nM
N#Cc1ccc(CN2CCC(NC(=O)c3cc4cc(NC(=O)C5CCN(Cc6cnn(-c7ccccn7)c6)CC5)ccc4o3)CC2)cc1 [Compound 6-41, N-(2-(1-(4-cyanobenzyl)piperidin-4-ylcarbamoyl)benzofuran-5-yl)-1-((1-(pyridin-2-yl)-1H-pyrazol-4-yl)methyl)piperidine-4-carboxamide] | 1000 to 10000 nM
N#Cc1ccc(CN2CCC(NC(=O)c3cc4cc(NC(=O)C5CCN(Cc6cnn(-c7ccc(C#N)cc7)c6)CC5)ccc4o3)CC2)cc1 [Compound 6-42, N-(2-(1-(4-cyanobenzyl)piperidin-4-ylcarbamoyl)benzofuran-5-yl)-1-((1-(4-cyanophenyl)-1H-pyrazol-4-yl)methyl)piperidine-4-carboxamide] | 1000 to 10000 nM
N#Cc1ccc(CN2CCC(NC(=O)c3cc4cc(NC(=O)C5CCN(Cc6ccc(F)c(F)c6)CC5)ccc4o3)CC2)cc1 [Compound 6-43, N-(2-(1-(4-cyanobenzyl)piperidin-4-ylcarbamoyl)benzofuran-5-yl)-1-(3,4-difluorobenzyl)piperidine-4-carboxamide] | 100 to 1000 nM
N#Cc1ccc(CN2CCC(NC(=O)c3cc4cc(NC(=O)C5CCN(Cc6ccc(OC(F)(F)F)cc6)CC5)ccc4o3)CC2)cc1 [Compound 6-46, N-(2-(1-(4-cyanobenzyl)piperidin-4-ylcarbamoyl)benzofuran-5-yl)-1-(4-(trifluoromethoxy)benzyl) piperidine-4-carboxamide] | 100 to 1000 nM
N#Cc1ccc(CN2CCC(NC(=O)c3cc4cc(NC(=O)C5CCN(Cc6ccc(C#N)c(F)c6)CC5)ccc4o3)CC2)cc1 [Compound 6-48, 1-(4-cyano-3-fluorobenzyl)-N-(2-(1-(4-cyanobenzyl)piperidin-4-ylcarbamoyl)benzofuran-5-yl)piperidine-4-carboxamide] | 100 to 1000 nM
N#Cc1ccc(CN2CCC(NC(=O)c3cc4cc(NC(=O)C5CCN(Cc6ccc(C#N)cc6)CC5)ccc4o3)CC2)cc1 [Compound 6-49, l-(4-cyanobenzyl)-N-(2-(l-(4-cyanobenzyl)piperidin-4-ylcarbamoyl)benzofiiran-5-yl)piperidine-4-carbox amide] | 100 to 1000 nM
N#Cc1ccc(CN2CCC(NC(=O)c3cc4cc(NC(=O)C5CCN(Cc6ccc(C(F)(F)F)cc6)CC5)ccc4o3)CC2)cc1 [Compound 6-50, N-(2-(1-(4-cyanobenzyl)piperidin-4-ylcarbamoyl)benzofuran-5-yl)-1-(4-(trifluoromethyl)benzyl) piperidine-4-carboxamide] | 100 to 1000 nM
N#Cc1ccc(CN2CCC(NC(=O)c3cc4cc(NC(=O)Cc5ccc(C(F)(F)F)cc5)ccc4o3)CC2)cc1 [Compound 6-54, N-(1-(4-cyanobenzyl)piperidin-4-yl)-5-(2-(4-(trifluoromethyl)phenyl)acetamido)benzofuran-2-carboxamide] | 100 to 1000 nM
Cc1nnsc1C(=O)Nc1ccc2oc(C(=O)NC3CCN(Cc4ccc(C#N)cc4)CC3)cc2c1 [Compound 6-56, N-(2-(1-(4-cyanobenzyl)piperidin-4-ylcarbamoyl)benzofuran-5-yl)-4-methyl-1,2,3-thiadiazole-5-carboxamide] | 1000 to 10000 nM

Structure (SMILES) | EC50
N#Cc1ccc(CN2CCC(NC(=O)c3cc4cc(NC(=O)c5ccc(C#N)cc5)ccc4o3)CC2)cc1 [Compound 6-57] | 100 to 1000 nM
COc1ccc(-n2cc(C(=O)Nc3ccc4oc(C(=O)NC5CCN(Cc6ccc(C#N)cc6)CC5)cc4c3)cn2)cc1 [Compound 6-59, N-(2-(1-(4-cyanobenzyl)piperidin-4-ylcarbamoyl)benzofuran-5-yl)-1-(4-methoxyphenyl)-1H-pyrazole-4-carboxamide] | 100 to 1000 nM
N#Cc1ccc(CN2CCC(NC(=O)c3cc4cc(NC(=O)c5ccc(-c6nnc[nH]6)cc5)ccc4o3)CC2)cc1 [Compound 6-60, 5-(4-(4H-1,2,4-triazol-3-yl)benzamido)-N-(1-(4-cyanobenzyl)piperidin-4-yl)benzofuran-2-carboxamide] | 1000 to 10000 nM
Cc1cc(C(=O)Nc2ccc3oc(C(=O)NC4CCN(Cc5ccc(C#N)cc5)CC4)cc3c2)no1 [Compound 6-61, N-(2-(1-(4-cyanobenzyl)piperidin-4-ylcarbamoyl)benzofuran-5-yl)-5-methylisoxazole-3-carboxamide] | 100 to 1000 nM
N#Cc1ccc(CN2CCC(NC(=O)c3cc4cc(NC(=O)c5ccc(Oc6ccc(F)cc6)nc5)ccc4o3)CC2)cc1 [Compound 6-64, N-(2-(1-(4-cyanobenzyl)piperidin-4-ylcarbamoyl)benzofuran-5-yl)-6-(4-fluorophenoxy)nicotinamide] | 100 to 1000 nM
N#Cc1ccc(CN2CCC(NC(=O)c3cc4cc(NC(=O)c5ccc(-n6cccn6)cc5)ccc4o3)CC2)cc1 [Compound 6-65, 5-(4-(1H-pyrazol-1-yl)benzamido)-N-(1-(4-cyanobenzyl)piperidin-4-yl)benzofuran-2-carboxamide] | 100 to 1000 nM
N#Cc1ccc(CN2CCC(NC(=O)c3cc4cc(NC(=O)c5cnn(-c6ccc(F)cc6)c5)ccc4o3)CC2)cc1 [Compound 6-66, N-(2-(1-(4-cyanobenzyl)piperidin-4-ylcarbamoyl)benzofuran-5-yl)-1-(4-fluorophenyl)-1H-pyrazole-4-carboxamide] | 100 to 1000 nM
N#Cc1ccc(CC(=O)Nc2ccc3oc(C(=O)NC4CCN(Cc5ccc(C#N)cc5)CC4)cc3c2)cc1 [Compound 6-67, N-(1-(4-cyanobenzyl)piperidin-4-yl)-5-(2-(4-cyanophenyl)acetamido) benzofuran-2-carboxamide] | 1000 to 10000 nM
N#Cc1ccc(CN2CCC(NC(=O)c3cc4cc(NC(=O)c5ccc(N6CCCC6)cc5)ccc4o3)CC2)cc1 [Compound 6-68, N-(1-(4-cyanobenzyl)piperidin-4-yl)-5-(4-(pyrrolidin-1-yl)benzamido)benzofuran-2-carboxamide] | 100 to 1000 nM
N#Cc1ccc(CN2CCC(NC(=O)c3cc4cc(NC(=O)[C@H]5CC[C@@H](Oc6ccc(C#N)cc6)CC5)ccc4o3)CC2)cc1 [Compound 6-69, N-(1-(4-cyanobenzyl)piperidin-4-yl)-5-((1s,4s)-4-(4-cyanophenoxy)cyclohexanecarboxamido) benzofuran-2-carboxamide] | < 100 nM
N#Cc1ccc(CN2CCC(NC(=O)c3cc4cc(NC(=O)C5CCN(c6ccc(C#N)cn6)CC5)ccc4o3)CC2)cc1 [Compound 6-70, N-(2-(1-(4-cyanobenzyl)piperidin-4-ylcarbamoyl)benzofuran-5-yl)-1-(5-cyanopyridin-2-yl)piperidine-4-carboxamide] | < 100 nM
N#Cc1ccc(CN2CCC(NC(=O)c3cc4cc(NC(=O)c5ccc(Oc6ccc(C#N)cn6)cc5)ccc4o3)CC2)cc1 [Compound 6-71, N-(1-(4-cyanobenzyl)piperidin-4-yl)-5-(4-(5-cyanopyridin-2-yloxy)benzamido)benzofuran-2-carboxamide] | 100 to 1000 nM
N#Cc1ccc(CN2CCC(NC(=O)c3cc4cc(NC(=O)c5cnn(Cc6ccc(C(F)(F)F)cc6)c5)ccc4o3)CC2)cc1 [Compound 6-72, N-(2-(1-(4-cyanobenzyl)piperidin-4-ylcarbamoyl)benzofuran-5-yl)-1-(4-(trifluoromethyl)benzyl)-1H-pyrazole-4-carboxamide] | 1000 to 10000 nM
N#Cc1ccc(CN2CCC(NC(=O)c3cc4cc(NC(=O)c5cnn(Cc6ccc(C#N)cc6)c5)ccc4o3)CC2)cc1 [Compound 6-73, 1-(4-cyanobenzyl)-N-(2-(1-(4-cyanobenzyl)piperidin-4-ylcarbamoyl)benzofuran-5-yl)-1H-pyrazole-4-carboxamide] | 1000 to 10000 nM
N#Cc1ccc(CN2CCC(NC(=O)c3cc4cc(NC(=O)C5CN(c6ccc(C#N)cc6)C5)ccc4o3)CC2)cc1 [Compound 6-74, N-(2-(1-(4-cyanobenzyl)piperidin-4-ylcarbamoyl)benzofuran-5-yl)-1-(4-cyanophenyl)azetidine-3-carboxamide] | 100 to 1000 nM
N#Cc1ccc(CN2CCC(NC(=O)c3cc4cc(NC(=O)C5CCN(c6ccc(C#N)cc6)CC5)ccc4o3)CC2)cc1 [Compound 6-76, N-(2-(1-(4-cyanobenzyl)piperidin-4-ylcarbamoyl)benzofuran-5-yl)-1-(4-cyanophenyl)piperidine-4-carboxamide] | < 100 nM
